This is an account of results in PMC3914206.

Assay [1] has as its target T1, panel of 442 kinases (Homo sapiens, UniProt O15530).
T1 construct: purchased KINOMEscan
T1 sequence (O15530 1-556): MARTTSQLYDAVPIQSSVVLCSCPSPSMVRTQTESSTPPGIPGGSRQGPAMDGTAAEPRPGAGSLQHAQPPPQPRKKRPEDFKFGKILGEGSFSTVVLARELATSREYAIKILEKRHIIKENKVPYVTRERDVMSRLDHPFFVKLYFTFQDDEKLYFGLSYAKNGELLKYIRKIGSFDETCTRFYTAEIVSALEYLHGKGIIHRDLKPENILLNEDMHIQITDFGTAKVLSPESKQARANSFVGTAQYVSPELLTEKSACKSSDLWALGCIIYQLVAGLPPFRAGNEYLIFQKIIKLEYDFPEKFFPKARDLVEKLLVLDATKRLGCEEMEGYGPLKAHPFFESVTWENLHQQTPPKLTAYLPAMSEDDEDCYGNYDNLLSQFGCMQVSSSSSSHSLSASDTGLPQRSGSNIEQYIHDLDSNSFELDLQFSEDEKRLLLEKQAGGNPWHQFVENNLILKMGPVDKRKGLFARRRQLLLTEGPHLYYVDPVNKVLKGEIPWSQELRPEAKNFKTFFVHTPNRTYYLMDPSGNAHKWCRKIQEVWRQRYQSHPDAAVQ
The class given is binding. The following applies: Compound Concentration 10 µM. The text has this: (§1) We assessed the selectivity of members of this scaffold using the KINOMEscan methodology across a near comprehensive panel of 442 kinases [[18,27]].

Assay [2] has as its target T2, panel of 442 kinases (Homo sapiens, UniProt P16234).
T2 construct: purchased KINOMEscan
The class given is binding. The conditions noted are these: Compound Concentration 10 µM.
Text: as §1

T2 sequence (P16234 24-1089): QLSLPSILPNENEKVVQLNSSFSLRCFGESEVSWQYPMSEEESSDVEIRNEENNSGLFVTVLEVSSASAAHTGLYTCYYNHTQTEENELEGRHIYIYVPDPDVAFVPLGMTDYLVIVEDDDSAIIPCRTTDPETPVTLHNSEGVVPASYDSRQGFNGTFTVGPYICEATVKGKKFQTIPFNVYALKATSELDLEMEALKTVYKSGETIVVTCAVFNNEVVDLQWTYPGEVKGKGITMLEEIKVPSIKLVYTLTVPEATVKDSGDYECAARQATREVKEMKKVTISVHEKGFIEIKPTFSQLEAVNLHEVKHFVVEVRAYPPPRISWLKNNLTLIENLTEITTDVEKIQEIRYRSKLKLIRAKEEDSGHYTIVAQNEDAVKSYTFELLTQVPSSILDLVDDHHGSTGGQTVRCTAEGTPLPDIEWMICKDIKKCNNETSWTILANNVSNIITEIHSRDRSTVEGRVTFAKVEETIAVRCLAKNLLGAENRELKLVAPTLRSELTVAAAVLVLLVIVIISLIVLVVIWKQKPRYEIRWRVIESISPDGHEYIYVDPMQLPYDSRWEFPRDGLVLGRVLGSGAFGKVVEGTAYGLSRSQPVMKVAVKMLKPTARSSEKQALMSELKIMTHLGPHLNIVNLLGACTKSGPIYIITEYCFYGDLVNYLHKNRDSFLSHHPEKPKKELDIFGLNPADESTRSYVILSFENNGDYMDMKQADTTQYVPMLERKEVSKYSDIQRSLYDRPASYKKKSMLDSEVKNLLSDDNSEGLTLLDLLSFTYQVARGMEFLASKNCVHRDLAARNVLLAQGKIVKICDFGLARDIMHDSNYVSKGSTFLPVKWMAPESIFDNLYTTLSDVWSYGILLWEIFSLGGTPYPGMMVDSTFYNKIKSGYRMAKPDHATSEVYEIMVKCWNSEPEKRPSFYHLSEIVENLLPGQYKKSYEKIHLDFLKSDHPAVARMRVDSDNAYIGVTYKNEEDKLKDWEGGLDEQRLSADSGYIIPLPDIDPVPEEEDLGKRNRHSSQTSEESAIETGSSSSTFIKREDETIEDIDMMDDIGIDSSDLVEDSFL

On to `CCOc1cc(C(=O)N2CCC(N3CCN(C)CC3)CC2)ccc1Nc1ncc2c(n1)N(C1CCCC1)c1ccccc1C(=O)N2C` [Compound 26], for which, at panel of 442 kinases [1], the “KINOMEscan: PDPK1” value was 99. The “KINOMEscan: PDGFRA” value at panel of 442 kinases [2] came out at 100.
Take `COc1cc(C(=O)N2CCC(N3CCN(C)CC3)CC2)ccc1Nc1ncc2c(n1)N(C)c1ccccc1C(=O)N2C` [15 (LRRK2-IN-1)]: at panel of 442 kinases [1], the “KINOMEscan: PDPK1” value is listed as 100. Moreover, on panel of 442 kinases [2], the “KINOMEscan: PDGFRA” value is given as 100.
Regarding `COc1cc(C(=O)N2CCC(N3CCN(C)CC3)CC2)ccc1Nc1ncc2c(n1)N(C1CCCC1)c1ccccc1C(=O)N2C` [Compound 25, 11-cyclopentyl-2-((2-methoxy-4-(4-(4-methylpiperazin-1-yl)piperidine-1-carbonyl)phenyl)amino)-5-methyl-5H-benzo[e]pyrimido[5,4-b][1,4]diazepin-6(11H)-one], the “KINOMEscan: PDPK1” value on panel of 442 kinases [1] stood at 98. Further, at panel of 442 kinases [2], the “KINOMEscan: PDGFRA” value is reported as 100.
